The text below walks through data of US20250019705A1, “PHARMACEUTICAL COMPOSITION FOR PREVENTING OR TREATING TARGET CANCER INCLUDING BRCA-SPECIFIC siRNA AS ACTIVE INGREDIENT” (KOREA INSTITUTE OF SCIENCE AND TECHNOLOGY, priority 2023, published 2025).

Holding throughout (type): cell-based, mouse
One assay relates to ID8 cells. The experiment in a line: PARP inhibitor IC50 analysis through MTS assay in ID8 cells incubated with vSIRPα-siBRCA. The method, then:
(§1) FIG. 9A, FIG. 9B, FIG. 9C, and FIG. 9D illustrate a result of treating ID8 cells incubated with vSIRPα-siBRCA with a PARP inhibitor (Olaparib or Talazoparib) and performing IC50 analysis through MTS assay.
(§2) Knockdown and knockout of BRCA genes were highly correlated with the efficacy of synthetic lethal cell death induction of the PARP inhibitor. Therefore, whether the PARP inhibitor, after silencing the expression of BRCA1/2, could induce apoptosis of tumor cells was required confirmation. BRCA1 and/or BRCA2 may be effectively knocked down by treating ID8 cells with the vSIRPα-siBRCA conjugates. Therefore ID8 cells were treated with the vSIRPα-siBRCA conjugates for 48 hours and then treated with Talazoparib at various concentrations for 72 hours.
Background: Formazan colour is commonly taken as a measure of viable cells.

The next assay relates to phospho-H2AX (γH2AX). The experiment in a line: DNA damage analysis by flow cytometry after PARP inhibitor in BRCA silenced cells. The settings on record: for γH2AX increase compared with control group: 0.01 μM Talazoparib. The protocol: The ID8 cells were dispensed in a 6-well plate at 2×10^5 cells/dish and incubated for 48 hours with PBS, vSIRPα-siBRCA1, vSIRPα-siBRCA2, and vSIRPα-siBRCA1/2. Subsequently, the cells were trypsinized and dispensed in a 6-well plate at 2×10^5 cells/dish, and treated with Olaparib or Talazoparib at a predetermined concentration for 24 to 48 hours.
Subsequently, the cells were detached with Trypsin-EDTA, blocked for 30 minutes using a PBS solution containing 1% FBS, and then a phospho-H2AX antibody was incubated for 2 hours. Thereafter, after PBS washing, flow cytometry was performed using a FACS device to measure phospho-H2AX antibody staining
To evaluate the level of PARP inhibitor-mediated DNA damage in BRCA gene-silenced cells, the expression levels of phospho-H2AX (γH2AX), a DNA damage marker, were measured by flow cytometry.
ID8 cells were treated with vSIRPα-siBRCA1 and vSIRPα-siBRCA2 alone or in combination, respectively, and after 48 hours, each cell type was treated with a PARP inhibitor, Talazoparib, and incubated for 48 hours.

The subject of assay [1] is BRCA1-deficient ID8 cells. Put plainly: PARP inhibitor IC50 analysis through MTS assay in BRCA1-deficient ID8 cells with BRCA2 knockdown. Conditions: BRCA1-deficient ID8 cells with BRCA2 knocked down. The method, then:
as §1, §2

Setting [2] is: BRCA1-knockdown (silenced) ID8 cells, vSIRPα-siBRCA 48 hours then PARP inhibitor 72 hours.
Setting [3] is: BRCA1/2 silenced ID8 cells (vSIRPα-siBRCA1 and vSIRPα-BRCA2 together), 48 hours then PARP inhibitor 72 hours.
The mark [4] stands for this setting: BRCA2-knockdown (silenced) ID8 cells, vSIRPα-siBRCA 48 hours then PARP inhibitor 72 hours.

Turning to `O=C(c1cc(Cc2n[nH]c(=O)c3ccccc23)ccc1F)N1CCN(C(=O)C2CC2)CC1` [Olaparib], the “fold reduction of IC50 of PARP inhibitor vs BRCA normal-expressing (control) ID8 cells” value with ID8 cells (setting [2]) is recorded as “about 3.76 fold”; with ID8 cells (setting [3]) it was “about 13.97 fold”; in the assay on ID8 cells (setting [4]) it was “about 2.77 fold”.
Take `Cn1ncnc1[C@H]1c2n[nH]c(=O)c3cc(F)cc(c23)N[C@@H]1c1ccc(F)cc1` [Talazoparib]: the “γH2AX increase compared with control group” value was roughly 3.06 fold with phospho-H2AX (γH2AX) (BRCA1/2 silenced ID8 cells (both conjugates 48 hours)), “about 1.32 fold” with phospho-H2AX (γH2AX) (BRCA1 silenced ID8 cells (vSIRPα-siBRCA1 48 hours)) and roughly 2.16 fold in the assay with phospho-H2AX (γH2AX) (BRCA2 silenced ID8 cells (vSIRPα-siBRCA2 48 hours)). Further, the “expression levels of γH2AX” value with phospho-H2AX (γH2AX) (ID8-sgBRCA1/2 cells, Talazoparib 48 hours) is listed as “significantly increased”. The “fold reduction of IC50 of PARP inhibitor by BRCA2 knockdown” value in assay [1] is recorded as “about 3.6 fold”. In addition, the figures for the “fold reduction of IC50 of PARP inhibitor vs BRCA normal-expressing (control) ID8 cells” value with ID8 cells (setting [2]), with ID8 cells (setting [3]) and in the assay with ID8 cells (setting [4]) were 3.23 fold, 28.11 fold and 4.34 fold, respectively.
